Laboratory results from ChEMBL document CHEMBL1697731, “Cheminformatics analysis of assertions mined from literature that describe drug-induced liver injury in different species” (Chem Res Toxicol, 2010).
*1 amine or outer side, *2 acyl side, *3 side chain or, on linkers, in order; H or OH if unused. Where a SMILES comes first, the peptide text is derived from it. Bridges are numbered along the chain shown (N, C = ends). Roman numbers before positions name the chains, in order. [ ]: non-standard residue; d: D form. Actinocin(9to1) = Cc1c2oc3c(C)ccc(C(=O)[*:1])c3nc-2c(C(=O)[*:2])c(N)c1=O; NMeV = CN[C@H](C(=O)O)C(C)C; Sar = CNCC(=O)O

Experiments:
[1] = test system: Hepatotoxicity; assay: Literature-mined compound from Fourches et al multi-species drug-induced liver injury (DILI) dataset, effect in humans; details: human
[2] = test system: Hepatotoxicity; assay: Literature-mined compound from Fourches et al multi-species drug-induced liver injury (DILI) dataset, effect in rodents; details: rodentia
[3] = test system: Hepatotoxicity; assay: Literature-mined compound from Fourches et al multi-species drug-induced liver injury (DILI) dataset, effect in non-rodents

## CCC(=O)O[C@@H](O[P@](=O)(CCCCc1ccccc1)CC(=O)N1C[C@H](C2CCCCC2)C[C@H]1C(=O)O)C(C)C [FOSINOPRIL]
[1]
  Hepatotoxicity: drug-induced liver injury reported
[2]
  Hepatotoxicity: no drug-induced liver injury reported
[3]
  Hepatotoxicity: no drug-induced liver injury reported

## O=C(O)c1ccccc1O [SALICYLIC ACID]
[1]; Liver
  Hepatotoxicity: no drug-induced liver injury reported
[2]; Liver
  Hepatotoxicity: drug-induced liver injury reported
[3]; Liver
  Hepatotoxicity: no drug-induced liver injury reported

## Clc1ccc(COC(Cn2ccnc2)c2ccc(Cl)cc2Cl)cc1 (stereo not given) [ECONAZOLE]
[1]
  Hepatotoxicity: no drug-induced liver injury reported
[2]
  Hepatotoxicity: drug-induced liver injury reported
[3]
  Hepatotoxicity: no drug-induced liver injury reported

## CCCCCOC(=O)Nc1nc(=O)n([C@@H]2O[C@H](C)[C@@H](O)[C@H]2O)cc1F [CAPECITABINE]
[1]
  Hepatotoxicity: drug-induced liver injury reported
[2]
  Hepatotoxicity: drug-induced liver injury reported
[3]
  Hepatotoxicity: no drug-induced liver injury reported

## GOLD SODIUM THIOMALATE
[1]
  Hepatotoxicity: drug-induced liver injury reported
[2]
  Hepatotoxicity: drug-induced liver injury reported
[3]
  Hepatotoxicity: no drug-induced liver injury reported

## CN(C)CCCN1c2ccccc2CCc2ccccc21 [IMIPRAMINE]
[1]
  Hepatotoxicity: drug-induced liver injury reported
[2]
  Hepatotoxicity: drug-induced liver injury reported
[3]
  Hepatotoxicity: no drug-induced liver injury reported

## CC(C)(C)NC(=O)[C@@H]1CN(Cc2cccnc2)CCN1C[C@@H](O)C[C@@H](Cc1ccccc1)C(=O)N[C@H]1c2ccccc2C[C@H]1O.O
[1]
  Hepatotoxicity: drug-induced liver injury reported
[2]
  Hepatotoxicity: drug-induced liver injury reported
[3]
  Hepatotoxicity: no drug-induced liver injury reported

## O=c1[nH]c(=O)n([C@H]2C[C@H](O)[C@@H](CO)O2)cc1F [FLOXURIDINE]
[1]
  Hepatotoxicity: drug-induced liver injury reported
[2]
  Hepatotoxicity: drug-induced liver injury reported
[3]
  Hepatotoxicity: no drug-induced liver injury reported

## Nc1cc(N2CCCCC2)nc(N)[n+]1[O-] [MINOXIDIL]
[1]
  Hepatotoxicity: drug-induced liver injury reported
[2]
  Hepatotoxicity: drug-induced liver injury reported
[3]
  Hepatotoxicity: no drug-induced liver injury reported

## CC[C@H]1OC(=O)[C@H](C)[C@@H](O[C@H]2C[C@@](C)(OC)[C@@H](O)[C@H](C)O2)[C@H](C)[C@@H](O[C@@H]2O[C@H](C)C[C@H](N(C)C)[C@H]2O)[C@](C)(O)C[C@@H](C)/C(=N\OCOCCOC)[C@H](C)[C@@H](O)[C@]1(C)O [ROXITHROMYCIN]
[1]
  Hepatotoxicity: drug-induced liver injury reported
[2]
  Hepatotoxicity: drug-induced liver injury reported
[3]
  Hepatotoxicity: no drug-induced liver injury reported

## CC(=O)N[C@@H](CS)C(=O)O [ACETYLCYSTEINE]
[1]
  Hepatotoxicity: drug-induced liver injury reported
[2]
  Hepatotoxicity: drug-induced liver injury reported
[3]
  Hepatotoxicity: no drug-induced liver injury reported

## Nc1nnc(-c2cccc(Cl)c2Cl)c(N)n1 [LAMOTRIGINE]
[1]
  Hepatotoxicity: drug-induced liver injury reported
[2]
  Hepatotoxicity: no drug-induced liver injury reported
[3]
  Hepatotoxicity: no drug-induced liver injury reported

## CCOc1ccc2nc(S(N)(=O)=O)sc2c1 [ETHOXZOLAMIDE]
[1]
  Hepatotoxicity: no drug-induced liver injury reported
[2]
  Hepatotoxicity: drug-induced liver injury reported
[3]
  Hepatotoxicity: no drug-induced liver injury reported

## Nc1nc(=O)[nH]cc1F [FLUCYTOSINE]
[1]
  Hepatotoxicity: no drug-induced liver injury reported
[2]
  Hepatotoxicity: drug-induced liver injury reported
[3]
  Hepatotoxicity: no drug-induced liver injury reported

## CC1(C)C(C=C(Cl)Cl)C1C(=O)OCc1cccc(Oc2ccccc2)c1 (stereo not given) [PERMETHRIN]
[1]
  Hepatotoxicity: no drug-induced liver injury reported
[2]
  Hepatotoxicity: drug-induced liver injury reported
[3]
  Hepatotoxicity: no drug-induced liver injury reported

## N[C@H]1C(O)O[C@H](CO)[C@@H](O)[C@@H]1O (stereo not given in full) [GLUCOSAMINE]
[1]
  Hepatotoxicity: no drug-induced liver injury reported
[2]
  Hepatotoxicity: drug-induced liver injury reported
[3]
  Hepatotoxicity: no drug-induced liver injury reported

## Nc1nc2c(ncn2COCCO)c(=O)[nH]1 [ACYCLOVIR]
[1]
  Hepatotoxicity: drug-induced liver injury reported
[2]
  Hepatotoxicity: drug-induced liver injury reported
[3]
  Hepatotoxicity: no drug-induced liver injury reported

## COc1cc([C@@H]2c3cc4c(cc3[C@@H](O[C@@H]3O[C@@H]5CO[C@@H](c6cccs6)O[C@H]5[C@H](O)[C@H]3O)[C@H]3COC(=O)[C@H]23)OCO4)cc(OC)c1O [TENIPOSIDE]
[1]
  Hepatotoxicity: no drug-induced liver injury reported
[2]
  Hepatotoxicity: drug-induced liver injury reported
[3]
  Hepatotoxicity: no drug-induced liver injury reported

## CC1(C)O[C@@H]2C[C@H]3[C@@H]4CCC5=CC(=O)C=C[C@]5(C)[C@@]4(F)[C@@H](O)C[C@]3(C)[C@]2(C(=O)CO)O1 [TRIAMCINOLONE ACETONIDE]
[1]
  Hepatotoxicity: no drug-induced liver injury reported
[2]
  Hepatotoxicity: drug-induced liver injury reported
[3]
  Hepatotoxicity: no drug-induced liver injury reported

## Cn1nnc2c(C(N)=O)ncn2c1=O [TEMOZOLOMIDE]
[1]
  Hepatotoxicity: drug-induced liver injury reported
[2]
  Hepatotoxicity: no drug-induced liver injury reported
[3]
  Hepatotoxicity: no drug-induced liver injury reported

## NNC(=O)c1ccncc1 [ISONIAZID]
[1]
  Hepatotoxicity: drug-induced liver injury reported
[2]
  Hepatotoxicity: drug-induced liver injury reported
[3]
  Hepatotoxicity: drug-induced liver injury reported

## CN(C)CCCC1(c2ccc(F)cc2)OCc2cc(C#N)ccc21 (stereo not given) [CITALOPRAM]
[1]
  Hepatotoxicity: no drug-induced liver injury reported
[2]
  Hepatotoxicity: drug-induced liver injury reported
[3]
  Hepatotoxicity: no drug-induced liver injury reported

## C#C[C@]1(O)CC[C@H]2[C@@H]3CCC4=CCCC[C@@H]4[C@H]3C(=C)C[C@@]21CC [DESOGESTREL]
[1]
  Hepatotoxicity: drug-induced liver injury reported
[2]
  Hepatotoxicity: no drug-induced liver injury reported
[3]
  Hepatotoxicity: no drug-induced liver injury reported

## Cc1c2oc3c(C)ccc(C(=O)N[C@@H]4C(=O)N[C@H](C(C)C)C(=O)N5CCC[C@H]5C(=O)N(C)CC(=O)N(C)[C@@H](C(C)C)C(=O)O[C@@H]4C)c3nc-2c(C(=O)N[C@@H]2C(=O)N[C@H](C(C)C)C(=O)N3CCC[C@H]3C(=O)N(C)CC(=O)N(C)[C@@H](C(C)C)C(=O)O[C@@H]2C)c(N)c1=O [DACTINOMYCIN] (I: T[dV]P[Sar][NMeV] / II: T[dV]P[Sar][NMeV]; ester I:1-I:C, II:1-II:C; linker I:N-II:N via Actinocin(9to1))
[1]
  Hepatotoxicity: drug-induced liver injury reported
[2]
  Hepatotoxicity: drug-induced liver injury reported
[3]
  Hepatotoxicity: drug-induced liver injury reported

## COC1=CC(=O)C[C@@H](C)[C@]12Oc1c(Cl)c(OC)cc(OC)c1C2=O [GRISEOFULVIN]
[1]
  Hepatotoxicity: drug-induced liver injury reported
[2]
  Hepatotoxicity: drug-induced liver injury reported
[3]
  Hepatotoxicity: no drug-induced liver injury reported
